Experimental data from PMC4167230, “Hydrophobic Substituents of the Phenylmethylsulfamide Moiety Can Be Used for the Development of New Selective Carbonic Anhydrase Inhibitors” (BioMed Research International, 2014).

How the values were obtained:
Experiment in all cases: stopped-flow CO2 hydration assay
Assay type in all cases: biochemical
[1] = molecular target: T1, hCA I (Homo sapiens, UniProt P00915); conditions: read-out: K I (nM)∗ / hCA I
T1 construct: gene CA1; cytosolic isoform
Source text: stopped-flow CO2 hydration assay on hCA I

[2] = molecular target: T2, hCA II (Homo sapiens, UniProt P00918); conditions: read-out: K I (nM)∗ / hCA II
T2 construct: gene CA2; cytosolic isoform; one molecule in the asymmetric unit
Source text: stopped-flow CO2 hydration assay on hCA II

[3] = molecular target: T3, hCA XII (Homo sapiens, UniProt O43570); conditions: read-out: K I (nM)∗ / hCA XII
T3 construct: gene CA12; transmembrane isoform
T3 sequence (O43570 25-354): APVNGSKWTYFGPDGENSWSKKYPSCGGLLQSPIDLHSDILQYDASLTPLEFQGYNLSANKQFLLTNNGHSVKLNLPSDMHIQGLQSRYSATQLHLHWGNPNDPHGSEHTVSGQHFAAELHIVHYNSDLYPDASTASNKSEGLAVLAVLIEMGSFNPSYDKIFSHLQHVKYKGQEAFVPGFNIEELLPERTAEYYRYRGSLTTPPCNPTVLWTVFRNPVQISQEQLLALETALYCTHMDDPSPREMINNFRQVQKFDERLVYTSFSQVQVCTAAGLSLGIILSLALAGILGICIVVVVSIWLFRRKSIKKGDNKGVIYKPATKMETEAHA
Source text: stopped-flow CO2 hydration assay on hCA XII

T1 sequence (P00915 2-261): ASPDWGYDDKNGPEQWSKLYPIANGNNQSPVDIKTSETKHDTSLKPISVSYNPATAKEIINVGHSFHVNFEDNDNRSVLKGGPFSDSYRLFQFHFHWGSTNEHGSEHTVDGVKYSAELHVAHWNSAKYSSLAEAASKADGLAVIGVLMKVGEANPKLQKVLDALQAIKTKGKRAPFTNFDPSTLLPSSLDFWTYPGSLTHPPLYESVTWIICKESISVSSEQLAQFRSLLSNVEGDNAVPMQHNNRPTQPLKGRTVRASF

| SMILES | Ki [1] | Ki [2] | Ki [3] |
| --- | --- | --- | --- |
| NS(=O)(=O)NCc1ccc(O)cc1 [compound 11, N-(4-Hydroxybenzyl)sulfuric Diamide] | 2180 nM | 74.1 nM | 5.8 nM |
| CC#CCOc1ccc(C=NS(N)(=O)=O)cc1 [compound 13, N-([4-(But-2-yn-1-yloxy)phenyl]methylidene)sulfuric Diamide] | 1940 nM | 9.8 nM | 8.4 nM |
| Cc1cc(COc2ccc(CNS(N)(=O)=O)cc2)c2ccccc2n1 [compound 16, N-{4-[(2-Methylquinolin-4-yl)methoxy]benzyl}sulfuric Diamide] | 1440 nM | 43.3 nM | 6.6 nM |
| CC#CCOc1ccc(CNS(N)(=O)=O)cc1 [compound 14, N-[4-(But-2-yn-1-yloxy)benzyl]sulfuric Diamide] | 1810 nM | 9.5 nM | 8.1 nM |
| COc1ccc(CNS(N)(=O)=O)cc1 [compound 12, N-(4-Methoxybenzyl)sulfuric Diamide] | 4050 nM | 134 nM | 6.6 nM |
| Cc1cc(COc2ccc(C=NS(N)(=O)=O)cc2)c2ccccc2n1 [compound 15, N-({4-[(2-Methylquinolin-4-yl)methoxy]phenyl}methylidene)sulfuric Diamide] | 1650 nM | 188 nM | 6.5 nM |
